Assay results published in the NIST ThermoML archive (doi:10.1016/j.jct.2011.10.002).
Numbers after ± are expanded uncertainties.

Settings: 298.15 K, 101.33 kPa, Liquid; for speed of sound: Sing-around technique in a fixed-path interferometer; for mass density: Vibrating tube method

speed of sound [m/s] | mass density [kg/m3] | SMILES
1380.1 ± 2.1 | 939.802 ± 0.77 | Cc1ccccn1 [2-methylpyridine]
1424 ± 1.2 | 952.002 ± 0.23 | Cc1cccnc1 [3-methylpyridine]
1431.5 ± 1.2 | 950.179 ± 0.23 | Cc1ccncc1 [4-methylpyridine]
1269.9 ± 2.1 | 879.136 ± 0.7 | C1CCOCC1 [tetrahydropyran]

SMILES | speed of sound [m/s] | mass density [kg/m3]
Cc1ccccc1N [2-methylaniline] | 1602.6 ± 1.3 | 994.351 ± 0.23
